Tests used:
Meprin A subunit beta = target: T1, Meprin A subunit beta (Homo sapiens, UniProt Q16820)
T1 sequence (Q16820 whole entry): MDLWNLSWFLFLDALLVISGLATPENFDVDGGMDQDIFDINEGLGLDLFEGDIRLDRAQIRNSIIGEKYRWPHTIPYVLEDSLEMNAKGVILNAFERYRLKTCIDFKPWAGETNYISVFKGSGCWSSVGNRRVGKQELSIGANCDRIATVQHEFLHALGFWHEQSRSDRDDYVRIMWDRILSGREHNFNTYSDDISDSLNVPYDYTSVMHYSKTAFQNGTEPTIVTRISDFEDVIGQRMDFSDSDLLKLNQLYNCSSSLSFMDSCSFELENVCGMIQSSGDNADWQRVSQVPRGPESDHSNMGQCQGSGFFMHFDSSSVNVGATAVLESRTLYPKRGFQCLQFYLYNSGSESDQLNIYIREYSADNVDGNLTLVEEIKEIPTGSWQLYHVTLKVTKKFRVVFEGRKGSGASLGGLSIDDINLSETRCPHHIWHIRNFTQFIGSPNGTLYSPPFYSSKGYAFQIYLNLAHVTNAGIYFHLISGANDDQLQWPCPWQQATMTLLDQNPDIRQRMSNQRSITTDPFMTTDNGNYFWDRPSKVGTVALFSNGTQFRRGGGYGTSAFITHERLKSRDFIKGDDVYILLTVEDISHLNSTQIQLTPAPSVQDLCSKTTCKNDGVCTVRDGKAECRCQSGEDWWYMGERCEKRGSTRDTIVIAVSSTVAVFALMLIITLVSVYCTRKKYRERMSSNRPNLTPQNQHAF
Description: Inhibition of recombinant human meprin beta expressed in yeast using Abz-YVAEAPK(Dnp)G-OH as substrate by fluorescence assay

BMP1 = target: T2, BMP1 (Homo sapiens, UniProt P13497); assay: Inhibition of human BMP1 expressed in Escherichia coli assessed as residual activity using Abz-YVADAPK(Dnp)G-OH as substrate at 200 uM by fluorescence assay relative to control; conditions: probe Abz-YVADAPK(Dnp)G-OH, read-out: Activity
T2 sequence (P13497 whole entry): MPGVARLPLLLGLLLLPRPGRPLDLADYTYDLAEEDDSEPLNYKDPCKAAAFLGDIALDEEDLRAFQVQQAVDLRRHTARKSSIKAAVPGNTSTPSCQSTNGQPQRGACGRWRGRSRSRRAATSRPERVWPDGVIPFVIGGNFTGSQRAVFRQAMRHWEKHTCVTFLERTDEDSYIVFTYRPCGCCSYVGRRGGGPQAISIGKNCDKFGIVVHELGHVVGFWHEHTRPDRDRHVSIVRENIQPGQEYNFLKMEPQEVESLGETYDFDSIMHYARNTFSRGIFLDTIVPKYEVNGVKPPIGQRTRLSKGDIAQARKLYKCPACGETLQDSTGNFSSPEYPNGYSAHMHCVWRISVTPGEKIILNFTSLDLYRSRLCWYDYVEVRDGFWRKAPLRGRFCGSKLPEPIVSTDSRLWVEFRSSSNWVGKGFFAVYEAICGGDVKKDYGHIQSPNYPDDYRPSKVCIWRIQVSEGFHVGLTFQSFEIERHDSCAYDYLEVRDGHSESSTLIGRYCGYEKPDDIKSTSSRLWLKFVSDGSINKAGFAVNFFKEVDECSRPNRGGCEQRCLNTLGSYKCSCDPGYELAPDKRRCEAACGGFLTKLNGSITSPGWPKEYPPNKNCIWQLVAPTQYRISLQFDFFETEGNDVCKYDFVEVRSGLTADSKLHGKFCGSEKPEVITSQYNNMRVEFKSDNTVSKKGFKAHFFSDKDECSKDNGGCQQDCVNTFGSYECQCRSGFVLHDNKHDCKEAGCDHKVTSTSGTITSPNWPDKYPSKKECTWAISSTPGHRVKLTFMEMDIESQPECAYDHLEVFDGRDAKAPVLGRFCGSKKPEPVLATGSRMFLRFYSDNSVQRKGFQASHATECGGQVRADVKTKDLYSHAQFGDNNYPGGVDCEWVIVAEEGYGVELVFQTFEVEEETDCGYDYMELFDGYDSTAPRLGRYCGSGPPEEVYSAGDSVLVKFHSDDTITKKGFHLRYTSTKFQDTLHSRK

[1] = Drug absorption in Sprague-Dawley rat at 10 mg/kg, po by LC-MS analysis; format: ADME, organism-based; conditions: in vivo, read-out: Fabs
[2] = Cmax in Sprague-Dawley rat at 10 mg/kg, po by LC-MS analysis; format: ADME, organism-based; set-up: dose 10 mg/kg, route oral; conditions: in vivo
[3] = Tmax in Sprague-Dawley rat at 10 mg/kg, po by LC-MS analysis; format: ADME, organism-based; conditions: in vivo
Rattus norvegicus = assay: Volume of distribution in Sprague-Dawley rat at 10 mg/kg, po by LC-MS analysis; format: ADME, organism-based; conditions: in vivo
[4] = Half life in Sprague-Dawley rat at 6 mg/kg, iv by LC-MS analysis; format: ADME, organism-based; conditions: in vivo
[5] = Clearance in Sprague-Dawley rat at 6 mg/kg, iv by LC-MS analysis; format: ADME, organism-based; conditions: in vivo
[6] = Volume of distribution at steady state in Sprague-Dawley rat at 6 mg/kg, iv by LC-MS analysis; format: ADME, organism-based; conditions: in vivo, read-out: Vdss
MMP2 = MMP2 (Homo sapiens, UniProt P08253); assay: Inhibition of human MMP2 assessed as residual activity using Mca-PLGL-(DapDnp)-AR-NH2 as substrate at 200 uM by fluorescence assay relative to control; conditions: human MMP2 enzyme, probe Mca-PLGL-(DapDnp)-AR-NH2, read-out: Activity
MMP2, sequence (P08253 whole entry): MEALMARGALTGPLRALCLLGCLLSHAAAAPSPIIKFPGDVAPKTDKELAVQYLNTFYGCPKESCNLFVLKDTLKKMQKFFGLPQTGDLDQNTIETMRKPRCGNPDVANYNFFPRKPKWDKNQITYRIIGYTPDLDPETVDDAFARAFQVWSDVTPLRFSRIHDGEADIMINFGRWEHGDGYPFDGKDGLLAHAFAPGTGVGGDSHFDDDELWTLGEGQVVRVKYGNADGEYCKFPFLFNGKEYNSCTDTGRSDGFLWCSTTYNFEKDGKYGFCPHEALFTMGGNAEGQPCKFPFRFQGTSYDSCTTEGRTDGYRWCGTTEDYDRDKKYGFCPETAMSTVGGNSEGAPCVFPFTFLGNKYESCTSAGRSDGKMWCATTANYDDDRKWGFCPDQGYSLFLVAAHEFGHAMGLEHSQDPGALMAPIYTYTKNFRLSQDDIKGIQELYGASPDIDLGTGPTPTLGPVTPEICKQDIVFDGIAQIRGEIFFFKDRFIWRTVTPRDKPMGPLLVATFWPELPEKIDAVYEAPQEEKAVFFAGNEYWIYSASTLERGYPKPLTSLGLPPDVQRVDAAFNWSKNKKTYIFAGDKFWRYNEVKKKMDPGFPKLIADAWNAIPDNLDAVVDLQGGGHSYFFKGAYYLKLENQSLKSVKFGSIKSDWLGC

MMP9 = MMP9 (Homo sapiens, UniProt P14780); assay: Inhibition of human MMP9 assessed as residual activity using Mca-PLGL-(DapDnp)-AR-NH2 as substrate at 200 uM by fluorescence assay relative to control; conditions: human MMP9 enzyme, probe Mca-PLGL-(DapDnp)-AR-NH2, read-out: Activity
MMP9, sequence (P14780 whole entry): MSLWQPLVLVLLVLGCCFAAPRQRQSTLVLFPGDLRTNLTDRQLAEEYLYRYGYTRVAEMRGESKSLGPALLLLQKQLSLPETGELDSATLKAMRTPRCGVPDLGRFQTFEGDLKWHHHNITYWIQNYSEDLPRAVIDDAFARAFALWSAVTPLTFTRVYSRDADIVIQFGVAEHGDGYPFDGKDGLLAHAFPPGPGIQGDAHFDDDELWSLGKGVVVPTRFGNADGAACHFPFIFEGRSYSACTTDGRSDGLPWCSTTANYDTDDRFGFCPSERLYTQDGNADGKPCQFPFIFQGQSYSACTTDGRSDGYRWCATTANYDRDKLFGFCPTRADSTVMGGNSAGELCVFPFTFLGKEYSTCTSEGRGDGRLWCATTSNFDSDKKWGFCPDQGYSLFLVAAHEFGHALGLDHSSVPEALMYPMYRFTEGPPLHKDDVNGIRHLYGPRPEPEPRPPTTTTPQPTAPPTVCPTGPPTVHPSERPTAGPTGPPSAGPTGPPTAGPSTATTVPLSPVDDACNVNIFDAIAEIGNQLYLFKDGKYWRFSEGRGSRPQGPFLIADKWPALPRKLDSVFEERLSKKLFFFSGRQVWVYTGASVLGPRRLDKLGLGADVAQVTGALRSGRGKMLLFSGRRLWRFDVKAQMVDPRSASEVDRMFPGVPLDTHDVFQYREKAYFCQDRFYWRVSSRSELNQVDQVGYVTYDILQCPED

MMP13 = MMP13 (Homo sapiens, UniProt P45452); assay: Inhibition of human MMP13 assessed as residual activity using Mca-PLGL-(DapDnp)-AR-NH2 as substrate at 200 uM by fluorescence assay relative to control; conditions: human MMP13 enzyme, probe Mca-PLGL-(DapDnp)-AR-NH2, read-out: Activity
ADAM10 = target: T3, ADAM10 (Homo sapiens, UniProt O14672); assay: Inhibition of human ADAM10 assessed as residual activity using Abz-LANAVRSSSR-(DapDnp)-AR-NH2 as substrate at 200 uM by fluorescence assay relative to control; conditions: human ADAM10 enzyme, probe Abz-LANAVRSSSR-(DapDnp)-AR-NH2, read-out: Activity
T3 sequence (O14672 whole entry): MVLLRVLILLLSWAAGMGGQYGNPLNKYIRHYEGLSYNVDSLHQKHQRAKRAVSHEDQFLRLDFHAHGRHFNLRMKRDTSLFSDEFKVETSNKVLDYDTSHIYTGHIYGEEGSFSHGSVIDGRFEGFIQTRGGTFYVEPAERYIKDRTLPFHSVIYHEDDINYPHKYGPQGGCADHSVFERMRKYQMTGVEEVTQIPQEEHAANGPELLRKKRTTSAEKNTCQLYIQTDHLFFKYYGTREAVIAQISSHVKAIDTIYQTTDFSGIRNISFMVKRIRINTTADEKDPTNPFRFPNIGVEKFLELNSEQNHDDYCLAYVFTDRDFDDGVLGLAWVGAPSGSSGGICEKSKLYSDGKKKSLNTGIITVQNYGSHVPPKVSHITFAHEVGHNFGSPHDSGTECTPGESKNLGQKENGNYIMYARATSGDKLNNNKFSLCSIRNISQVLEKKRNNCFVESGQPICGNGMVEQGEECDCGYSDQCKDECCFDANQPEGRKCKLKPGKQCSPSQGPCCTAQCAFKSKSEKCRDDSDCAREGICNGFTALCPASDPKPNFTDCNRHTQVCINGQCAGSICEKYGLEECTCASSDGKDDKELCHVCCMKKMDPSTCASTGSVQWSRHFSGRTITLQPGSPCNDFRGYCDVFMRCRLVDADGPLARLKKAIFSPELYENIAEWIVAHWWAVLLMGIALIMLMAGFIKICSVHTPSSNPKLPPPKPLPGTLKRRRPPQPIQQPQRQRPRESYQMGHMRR

ADAM17 = ADAM17 (Homo sapiens, UniProt P78536); assay: Inhibition of human ADAM17 assessed as residual activity using Abz-LANAVRSSSR-(DapDnp)-AR-NH2 as substrate at 200 uM by fluorescence assay relative to control; conditions: human ADAM17 enzyme, probe Abz-LANAVRSSSR-(DapDnp)-AR-NH2, read-out: Activity
ADAM17, sequence (P78536 whole entry): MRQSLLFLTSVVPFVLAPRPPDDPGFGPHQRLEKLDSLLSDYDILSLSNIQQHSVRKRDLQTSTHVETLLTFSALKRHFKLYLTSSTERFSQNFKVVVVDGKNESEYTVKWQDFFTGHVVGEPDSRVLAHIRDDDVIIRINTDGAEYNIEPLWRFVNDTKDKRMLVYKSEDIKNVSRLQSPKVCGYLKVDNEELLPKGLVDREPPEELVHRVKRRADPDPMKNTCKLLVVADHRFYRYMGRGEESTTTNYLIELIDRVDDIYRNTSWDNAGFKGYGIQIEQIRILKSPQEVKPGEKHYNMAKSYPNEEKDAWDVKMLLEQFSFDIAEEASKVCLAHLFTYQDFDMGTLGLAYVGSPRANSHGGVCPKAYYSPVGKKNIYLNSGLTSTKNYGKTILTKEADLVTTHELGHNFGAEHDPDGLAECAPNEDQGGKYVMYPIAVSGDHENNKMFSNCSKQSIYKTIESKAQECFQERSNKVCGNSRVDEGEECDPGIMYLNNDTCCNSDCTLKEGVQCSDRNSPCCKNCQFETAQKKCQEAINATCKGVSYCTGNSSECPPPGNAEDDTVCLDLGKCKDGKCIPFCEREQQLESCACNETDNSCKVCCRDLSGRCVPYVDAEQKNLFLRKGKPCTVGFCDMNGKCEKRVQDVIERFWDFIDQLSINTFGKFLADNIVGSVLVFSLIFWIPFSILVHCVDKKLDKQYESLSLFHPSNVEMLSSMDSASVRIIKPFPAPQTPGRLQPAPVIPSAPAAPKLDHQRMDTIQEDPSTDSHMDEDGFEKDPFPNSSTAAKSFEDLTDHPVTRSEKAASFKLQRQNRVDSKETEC

CYP3A4 = CYP3A4 (Homo sapiens, UniProt P08684); assay: Inhibition of recombinant human CYP3A4 expressed in baculosomes assessed as residual activity at 25 uM using BOMCC substrate by fluorescence assay relative to control; format: ADME; conditions: probe BOMCC, read-out: Activity
CYP3A4, sequence (P08684 whole entry): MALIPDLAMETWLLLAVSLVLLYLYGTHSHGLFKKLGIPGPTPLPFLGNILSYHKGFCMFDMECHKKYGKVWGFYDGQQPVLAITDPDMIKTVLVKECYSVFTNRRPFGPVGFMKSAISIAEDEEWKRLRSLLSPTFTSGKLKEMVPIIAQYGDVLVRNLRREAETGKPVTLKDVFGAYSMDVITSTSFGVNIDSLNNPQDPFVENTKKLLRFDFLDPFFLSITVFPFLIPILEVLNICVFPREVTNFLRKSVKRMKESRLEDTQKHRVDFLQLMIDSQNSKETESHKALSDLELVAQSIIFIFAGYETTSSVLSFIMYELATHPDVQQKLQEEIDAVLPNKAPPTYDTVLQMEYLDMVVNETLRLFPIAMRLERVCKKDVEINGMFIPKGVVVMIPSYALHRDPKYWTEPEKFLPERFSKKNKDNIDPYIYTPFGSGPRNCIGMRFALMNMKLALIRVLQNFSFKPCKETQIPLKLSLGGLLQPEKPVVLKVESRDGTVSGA

CYP2C9 = CYP2C9 (Homo sapiens, UniProt P11712); assay: Inhibition of recombinant human CYP2C9 expressed in baculosomes assessed as residual activity at 25 uM using BOMCC substrate by fluorescence assay relative to control; format: ADME; conditions: probe BOMCC, read-out: Activity
CYP2C9, sequence (P11712 whole entry): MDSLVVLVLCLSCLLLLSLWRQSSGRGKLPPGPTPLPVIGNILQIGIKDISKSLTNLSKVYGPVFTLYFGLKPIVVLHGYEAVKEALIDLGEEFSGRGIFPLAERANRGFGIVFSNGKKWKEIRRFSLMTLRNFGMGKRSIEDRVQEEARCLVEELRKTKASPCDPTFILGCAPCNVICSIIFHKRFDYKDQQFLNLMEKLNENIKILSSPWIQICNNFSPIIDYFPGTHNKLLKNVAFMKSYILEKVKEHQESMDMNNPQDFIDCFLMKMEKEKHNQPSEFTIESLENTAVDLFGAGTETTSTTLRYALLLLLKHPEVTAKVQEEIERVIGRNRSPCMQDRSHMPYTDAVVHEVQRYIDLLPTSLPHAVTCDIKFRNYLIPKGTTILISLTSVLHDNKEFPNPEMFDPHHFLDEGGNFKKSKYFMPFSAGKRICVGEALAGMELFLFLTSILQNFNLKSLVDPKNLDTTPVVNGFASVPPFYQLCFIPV

SH-SY5Y [7] = assay: Cytotoxicity in human SH-SY5Y cells assessed as cell viability at 30 uM after 24 hrs by CytoTox-ONE-based assay relative to control; format: functional; conditions: read-out: Activity
HepG2 [8] = assay: Cytotoxicity in human HepG2 cells assessed as cell viability at 30 uM after 24 hrs by CytoTox-ONE-based assay relative to control; format: functional; conditions: HepG2, 24 h, read-out: Activity
[9] = Drug absorption in Sprague-Dawley rat at 10 mg/kg, ip by LC-MS analysis; format: ADME, organism-based; conditions: in vivo, read-out: Fabs
[10] = Cmax in Sprague-Dawley rat at 10 mg/kg, ip by LC-MS analysis; format: ADME, organism-based; set-up: dose 10 mg/kg, route intraperitoneal; conditions: in vivo
[11] = Tmax in Sprague-Dawley rat at 10 mg/kg, ip by LC-MS analysis; format: ADME, organism-based; conditions: in vivo
SH-SY5Y [12] = assay: Cytotoxicity in human SH-SY5Y cells assessed as cell viability at 100 uM after 24 hrs by CytoTox-ONE-based assay relative to control; format: functional; conditions: read-out: Activity
HepG2 [13] = assay: Cytotoxicity in human HepG2 cells assessed as cell viability at 100 uM after 24 hrs by CytoTox-ONE-based assay relative to control; format: functional; conditions: HepG2, 24 h, read-out: Activity
Homo sapiens = species: Homo sapiens; assay: Selectivity ratio of IC50 for recombinant human meprin alpha expressed in insect cells to IC50 for recombinant human meprin beta expressed in yeast

SMILES	IC50 (Meprin A subunit beta)	activity at 200 µM (MMP2)	activity at 200 µM (MMP9)	activity at 200 µM (MMP13)	activity at 200 µM (ADAM10)	activity at 200 µM (ADAM17)	activity at 25 µM (CYP3A4)	activity at 25 µM (CYP2C9)	further results
O=C(CN(Cc1ccc(C(=O)O)cc1)Cc1ccc(C(=O)O)cc1)NO	524 nM								
O=C(CN(Cc1ccc(F)c(O)c1F)Cc1ccc(F)c(O)c1F)NO		67%	94%	102%	99%	92%	87%	101%	activity at 200 µM (BMP1): 34%; Fa [1]: 5%; Cmax [2]: 1080 ng/mL; Tmax [3]: 7.8 min; Vd (Rattus norvegicus): 0.045 L; half-life [4]: 66 min; clearance [5]: 21.8 mL/min/kg; Vd [6]: 0.41 L/kg; viability at 30 µM (SH-SY5Y [7]): 92%; viability at 30 µM (HepG2 [8]): 99%
O=C(CN(Cc1ccc(-c2ccccc2)cc1)Cc1cccc(C(=O)O)c1)NO	1280 nM								
COc1cc(F)c(CN(CC(=O)NO)Cc2cccc(C(=O)O)c2)c(F)c1	347 nM								
COc1ccc(CN(CC(=O)NO)Cc2cccc(C(=O)O)c2)cc1F	375 nM								
O=C(CN(Cc1ccc(Cl)cc1)Cc1cccc(C(=O)O)c1)NO		69%	88%	78%	95%	57%	79%	77%	viability at 30 µM (SH-SY5Y [7]): 97%; viability at 30 µM (HepG2 [8]): 104%
COc1c(Cl)ccc(CN(CC(=O)NO)Cc2ccc(Cl)c(OC)c2F)c1F	12800 nM								
O=C(CN(Cc1ccc(Cl)c(O)c1F)Cc1ccc(Cl)c(O)c1F)NO		41%	81%	93%	97%	82%	76%	68%	activity at 200 µM (BMP1): 50%; Fa [1]: 9%; Cmax [2]: 810 ng/mL; Tmax [3]: 15 min; Vd (Rattus norvegicus): 0.058 L; Fa [9]: 84%; Cmax [10]: 10900 ng/mL; Tmax [11]: 10.2 min; half-life [4]: 114 min; clearance [5]: 21 mL/min/kg; Vd [6]: 0.33 L/kg; viability at 30 µM (SH-SY5Y [7]): 93%; viability at 30 µM (HepG2 [8]): 101%
COc1ccc(CN(CC(=O)NO)Cc2cccc(C(=O)O)c2)cc1	77 nM	68%	85%	94%	87%	60%	80%	102%	viability at 100 µM (SH-SY5Y [12]): 87%; viability at 100 µM (HepG2 [13]): 100%; Ratio IC50 (Homo sapiens): 40
CCCOc1cccc(CN(CC(=O)NO)Cc2cccc(C(=O)O)c2)c1	2250 nM								
Cc1ccc(CN(CC(=O)NO)Cc2cccc(C(=O)O)c2)cc1	386 nM								
COc1ccc(S(=O)(=O)N(CC(=O)NO)Cc2cccc(C(=O)O)c2)cc1		< 1%	2%	< 1%	< 1%	< 1%			

— ChEMBL document CHEMBL4184323, “Structure-Guided Design, Synthesis, and Characterization of Next-Generation Meprin β Inhibitors” (J Med Chem, 2018)
